target: T1, HIV Reverse transcriptase (RT) 66/p51 (Human immunodeficiency virus type 1 group M subtype B, UniProt P04585); assay: RNA dependent DNA polymerase (RDDP) activity of HIV RT, polyrA-oligodT12-18 / 33P TTP incorporation filter assay; type: biochemical
T1 construct: HIV Reverse transcriptase (RT) 66/p51; purchased Worthington

In the case of `Cc1cn([C@H]2C[C@H](N=[N+]=[N-])[C@@H](CO)O2)c(=O)[nH]c1=O` [AZT], the IC50 is reported as < 0.2 µM.

target: T2, HIV reverse transcriptase (Human immunodeficiency virus type 1 group M subtype B, UniProt P04585); assay: Inhibition of HIV reverse transcriptase (RNase H fluorescent probe assay), Table I; type: biochemical
T2 construct: HIV reverse transcriptase has an RNase H domain at the C-terminus of its p66 subunit
Source text: RNase H is an enzyme responsible for the removal of RNA primers from leading and lagging strands during DNA synthesis. It is an important enzyme for the replication of bacterial, viral and human genomes. HIV reverse transcriptase has an RNase H domain at the C-terminus of its p66 subunit. […] The ability of the compounds of the present invention to inhibit RNase H, and more particularly HIV reverse transcriptase, may be determined by any means known in the art.
Preferably, the RNase H/HIV reverse transcriptase modulatory activity of the compounds of the present invention may be determined by the methods described in copending U.S. Provisional Patent Application No. 60/436,125, filed Dec. 19, 2002 and PCT International Publication No. WO/2004/059012, filed Dec. 22, 2003 for ASSAY FOR RNase ACTIVITY of Olson et al., incorporated herein by reference in its entirety. Specifically, the modulatory activity of a triazole derivative of the present invention may be determined by hybridizing a target nucleic acid to a fluorescently labeled oligonucleotide probe complementary to the target nucleic acid and containing a fluorophor at one terminus and a quenching group at the other terminus to obtain a probe-target hybrid, wherein (i) the unhybridized probe adopts a conformation that places the fluorophon and quencher in such proximity that the quencher quenches the fluorescent signal of the fluorophon, and (ii) the formation of the probe-target hybrid causes sufficient separation of the fluorophon and quencher to reduce quenching of the fluorescent signal of the fluorophon. Next, a first and second sample containing the probe-target hybrid are prepared. The probe-target hybrid of the first sample is then contacted with an RNase H enzyme (such as HIV reverse transcriptase) in an amount sufficient to selectively cleave the target nucleic acid and thereby release the intact probe. The probe-target hybrid of the second sample is also contacted with the RNase H enzyme in an amount sufficient to selectively cleave the target nucleic acid and thereby release the intact probe in the presence of a triazole derivative of the present invention. The release of the probe in each sample may then be detected by measuring the […] in the fluorescent signal of the fluorophon as compared to the signal of the probe-target hybrid. A comparison of the rate of the decrease in the fluorescent signal of the fluorophon in the two samples is made to determine whether there is a difference in the rate of the decrease in the two samples. […] This method is also useful to identify triazole derivatives of the present invention, wherein candidate derivatives are screened for their ability to modulate RNase/HIV reverse transcriptase activity.

First: Clc1ccc(CSc2nnc(-c3cccs3)n2Cc2ccccc2)cc1 [Example 1, 4-benzyl-3-[(4-chlorobenzyl)thio]-5-thien-2-yl-4H-1,2,4-triazole]
Second: COc1ccc(CSc2nnc(-c3cccs3)n2Cc2ccccc2)cc1 [Example 13, 4-benzyl-3-[(4-methoxybenzyl)thio]-5-thien-2-yl-4H-1,2,4-triazole]
The IC50 of the first is 4.5-fold lower: 1.3 µM for the first, 5.9 µM for the second. The first is the more potent here.

First: c1ccc(CSc2nnc(-c3cccs3)n2Cc2ccccc2)cc1 [Example 2, 4-benzyl-3-(benzylthio)-5-thien-2-yl-4H-1,2,4-triazole]
Second: c1ccc(Cn2c(SCc3ccncc3)nnc2-c2cccs2)cc1 [Example 3, 4-{[(4-benzyl-5-thien-2-yl-4H-1,2,4-triazol-3-yl)thio}methyl}pyridine]
The IC50 of the first is lower: < 0.2 µM for the first, 0.2 µM for the second. The first is the more potent here.

First: COc1ccc(CSc2nnc(-c3ccccc3)n2Cc2ccccc2)cc1 [Example 4, 4-benzyl-3-[(4-methoxybenzyl)thio]-5-phenyl-4H-1,2,4-triazole]
Second: Clc1ccc(CSc2nnc(-c3ccccc3)n2Cc2ccccc2)cc1 [Example 15, 4-benzyl-3-(4-chloro-benzylsulfanyl)-5-phenyl-4H-1,2,4-triazole]
The IC50 of the first is 6-fold lower: 1 µM for the first, 6 µM for the second.

First: c1ccc(CSc2nnc(-c3ccccc3)n2Cc2ccccc2)cc1 [Example 5, 4-benzyl-3-(benzylthio)-5-phenyl-4H-1,2,4-triazole]
Second: c1ccc(CSc2nnc(-c3ccccn3)n2Cc2ccccc2)cc1 [Example 7, 2-[4-benzyl-5-(benzylthio)-4H-1,2,4-triazol-3-yl]pyridine]
The IC50 of the first is 1.7-fold lower: 1 µM for the first, 1.7 µM for the second. The first is the more potent here.

Compared with `c1ccc(CSc2nnc(-c3ccco3)n2Cc2ccccc2)cc1` [Example 6, 4-benzyl-3-(benzylthio)-5-(2-furyl)-4H-1,2,4-triazole], `Clc1ccc(CSc2nnc(-c3ccco3)n2Cc2ccccc2)cc1` [Example 10, 4-benzyl-3-[(4-chlorobenzyl)thio]-5-(2-furyl)-4H-1,2,4-triazole] is 3.2-fold higher in IC50: 1.2 µM for the first, 3.8 µM for the second. The first is the more potent here.

Going from `c1ccc(Cn2c(SCc3ccncc3)nnc2-c2ccccn2)cc1` [Example 8, 2-[4-benzyl-5-[(pyridine-4-ylmethyl)thio)-4H-1,2,4-triazol-3-yl]pyridine] to `Clc1ccc(CSc2nnc(-c3ccccn3)n2Cc2ccccc2)cc1` [Example 17, 2-[4-benzyl-5-(4-chloro-benzylsulfanyl)-4H-1,2,4-triazol-3-yl]pyridine], the IC50 rises from 2.6 µM to 23 µM (8.8-fold).

Compared with `COc1ccc(CSc2nnc(-c3ccco3)n2Cc2ccccc2)cc1` [Example 9, 4-benzyl-3-(2-furyl)-5-[(4-methoxybenzyl)thio]-4H-1,2,4-triazole], `COc1ccc(Cn2c(SCc3ccccc3)nnc2-c2ccco2)cc1` [Example 18, 3-benzylsulfanyl-5-furan-2-yl-4-(4-methoxy-benzyl)-4H-1,2,4-triazole] is 12-fold higher in IC50: 3.8 µM for the first, 46 µM for the second. The first is the more potent here.

`FC(F)(F)c1ccc(CSc2nnc(-c3ccco3)n2-c2ccccc2)cc1` [Example 12, 3-(2-furyl)-4-phenyl-5-{[4-(trifluoromethyl)benzyl]thio}-4H-1,2,4-triazole] and `COc1ccc(Cn2c(SCc3ccc(C(F)(F)F)cc3)nnc2-c2ccco2)cc1` [Example 14, 3-(2-furyl)-4(4-methoxybenzyl)-5-{[4-(trifluoromethyl)benzyl]thio}-4H-1,2,4-triazole] are within 1.5-fold of each other in IC50: 4.7 µM for the first, 6.5 µM for the second.

Compound `COc1ccc(CSc2nnc(-c3ccccn3)n2Cc2ccccc2)cc1` [Example 16, 2-[4-benzyl-5-(4-methoxy-benzylsulfanyl)-4H-1,2,4-triazol-3-yl]pyridine] has an IC50 of 7 µM.

Reference: US7563905B2, “Triazole derivatives and method of using the same to treat HIV infections” (Wyeth, priority 2004, dated 2009)
